# Laboratory results: patent US12612389B2, “Benzofuran-based N-acylhydrazone derivative and pharmaceutical composition comprising same” (KOREA RESEARCH INSTITUTE OF BIOSCIENCE AND BIOTECHNOLOGY, priority 2019, dated 2026)
# Read-outs that look alike come from different tables or passages of the source.
# Columns and labels:
# MCF7 = assay: Anti-proliferative activity test in cancer cells exhibiting multidrug resistance (MTT), parent line; type: cell-based; conditions: Homo sapiens, 96 h, 4 days
# Procedure: (§1) HeLa cells (American Type Culture Collection: ATCC, USA), a human cervical cancer cell line, were seeded in a 96-well plate at 3×10^3 cells/well, and the cells were then treated with compounds of Examples or Comparative Example according to the present invention and grown for 2 days. Then, MTT (3-(4,5-dimethylthiazol-2-yl)-2,5-diphenyltetrazolium bromide) reagent was added at 10 μL/well. […] The data shown in Table below are mean values of results obtained by repeating the analysis twice. Specifically, K562 and MCF7 (Bio Evaluation Center, Korea Research Institute of Bioscience and Biotechnology, Korea) and multidrug-resistant cell lines of each of these cell lines, i.e., K562/ADR and MCF7/ADR (Bio Evaluation Center, Korea Research Institute of Bioscience and Biotechnology, Korea), were cultured on microtiter plates (1-3×10^3 cells/well). […] The data shown in Table below are mean values of results obtained by repeating the analysis three times.
# K562 = assay: as above; type: cell-based; conditions: Homo sapiens, 96 h, 4 days
# Procedure: as §1
# K562/ADR = assay: Anti-proliferative activity test in cancer cells exhibiting multidrug resistance (MTT); type: cell-based; conditions: for IC50: Homo sapiens, 96 h, K562/ADR (multidrug-resistant), 4 days, MTT; for Resistance Factor: ratio IC50 K562/ADR to IC50 K562
# Procedure: as §1
# MCF7/ADR = assay: as above; type: cell-based; conditions: for IC50: Homo sapiens, NCI/ADR-RES, 96 h, MCF7/ADR (multidrug-resistant), 4 days, MTT; for Resistance Factor: ratio IC50 MCF7/ADR to IC50 MCF7
# Procedure: as §1
# Stability test in plasma [1] = type: in vitro ADME; design: Residue % (180 minutes elapsed), Mean: dose or concentration left out as unconfirmed; conditions: 37° C.
# Procedure: In order to test the stability (in vivo) of the Example compounds according to the present invention, the compounds of Examples 2, 3, 4, 8 and 15 were administered intravenously, and plasma concentrations over time were observed. In addition, procaine was used as a positive control. Plasma stability was measured three times by administering the test compound at a concentration […] to human, rat, or mouse plasma (90 μL) at 37° C. Results thereof are shown in Table below and FIGS. 3A to 3E.
# [2] = Solubility test in administration solvent; type: physicochemical; conditions: 2.0 mg/mL; Solvent A 20%, Solvent B 20%, Solvent C 60% (dimethylacetamide/Cremophor EL/20% HPbCD)
# Procedure: The test substances were accurately weighed and placed in a glass vial. Then, solvent A was added in an amount corresponding to 20% of the desired final solution volume, and the mixture was completely dissolved by treatment with a vortexer and sonication. Next, solvent B in an amount corresponding to 10% or 20% of the final solution volume was added and mixed well. […] Finally, the mixture was subjected to sonication for 30 seconds. The mixed solution was prepared and used immediately before administration in the experiment. • Solvent A: Dimethylacetamide produced by SigmaAldrich • Solvent B: Cremophor EL produced by SigmaAldrich • Solvent C: 20% HPbCD ((2-Hydroxypropyl)-β-cyclodextrin produced by SigmaAldrich) in deionized water
# Stability test in plasma [3] = type: in vitro ADME; conditions: Rat plasma, 37° C.
# Procedure: In order to test the stability (in vivo) of the Example compounds according to the present invention, the compounds of Examples 2, 3, 4, 8 and 15 were administered intravenously, and plasma concentrations over time were observed. In addition, procaine was used as a positive control. Plasma stability was measured three times by administering the test compound at a concentration of 5 mM to human, rat, or mouse plasma (90 μL) at 37° C. Results thereof are shown in Table below and FIGS. 3A to 3E.
# HeLa cells = assay: Anti-proliferative activity test in HeLa cell line (MTT); type: cell-based; conditions: Homo sapiens, 48 h, grown for 2 days, mean of 2
# Procedure: HeLa cells (American Type Culture Collection: ATCC, USA), a human cervical cancer cell line, were seeded in a 96-well plate at 3×10^3 cells/well, and the cells were then treated with compounds of Examples or Comparative Example according to the present invention and grown for 2 days. Then, MTT (3-(4,5-dimethylthiazol-2-yl)-2,5-diphenyltetrazolium bromide) reagent was added at 10 μL/well. After 2 hours, absorbance was measured at “OD 450” and statistical values were obtained using Prism™6 program. The data shown in Table below are mean values of results obtained by repeating the analysis twice.
# HeLa CCL2 tumor = assay: Anticancer effect test in human cervical cancer cell (HeLa CCL2) transplantation model; type: in vivo, BALB/C female nude mouse; conditions: 25 mg/kg intraperitoneally, p<0.001
# Procedure: After thawing the human […] cancer cell line HeLa CCL2 that was stored frozen in liquid nitrogen, cell culture was performed. The cells were cultured for an appropriate period in a CO2 incubator (Forma, USA) at a temperature of 37° C. and a CO2 concentration of 5%.
# On the last day of culture, all cancer cells were collected and counted, and the cell concentration was adjusted to 1×10^7 cells/mL using serum free media. The cell culture solution as adjusted above was injected subcutaneously into the axillary region between the shoulder blade and the chest wall in an amount of 0.3 mL (3×10^6 cells/mouse) per BALB/C female nude mouse (5 weeks old, Nara Biotech).
# Immediately prior to administration, the compounds were dissolved in a mixture of DMAC (dimethylacetamide) 20%+Tween80 5%+20% HPbCD (2-hydroxypropyl-β-cyclodextrin) 75% at an appropriate concentration and used. The prepared substances were repeatedly administered intraperitoneally in an amount of 0.2 mL (10 mL/kg) per 20 g of a mouse according to the following administration schedule. • carrier, the compound of Example 4, the compound of Example 8, and the compound of Example 15 (25 mg/kg), 0-28 days 4.3. Confirmation of Change in Tumor Size
# After cancer cell transplantation, the tumor size of each animal subject was measured a total of 11 times in 3 directions using a vernier caliper from when the mean tumor size reached 57.0 mm^3 until Day 28, and calculated by the formula of length×width×height/2.
# In order to test the degree of toxicity upon repeated intraperitoneal administration of the Example compound to HeLa CCL2 cancer cell transplantation nude mice, general symptoms and body weight changes of the animal subjects were observed during the administration period.
# On Day 28 after drug administration, blood was collected from the mouse ophthalmic veins in 2 hours post the last administration, and the mice were killed using CO2 gas. Images of the mice were taken, and the tumor was separated and weighed on an electronic scale. After taking the images, each tumor was divided in half and fixed in liquid nitrogen and formalin, respectively. On […] after drug administration, the HeLa CCL2 tumor was excised and weighed.
# [4] = Pharmacokinetic (PK) test; type: in vivo, male ICR mice; conditions: for Vd: iv; for AUC(0-t): read-out: AUClast, Mean
# Procedure: Pharmacokinetic (PK) parameters of the Example compounds according to the present invention were determined using male ICR mice as follows (n=3).
# Pharmacokinetic (PK) parameters were measured by non-compartmental analysis of plasma concentration-time curves using Kinetica™ 4.4.1 (Thermo Fisher Scientific, USA). Results thereof are shown in Table below and FIGS. 5A to 5C. In Table below, “F” parameter was calculated using AUClast, “N/A” indicates the phrase not applicable, and “NC” indicates the phrase not calculated.
# [5] = Stability in buffer (line of the metabolic stability test); type: in vitro ADME
# Procedure: (§2) The test compounds at a concentration of […] were administered in the presence or absence of NADPH (1 mM) to liver […] (0.5 mg protein/mL) of humans, rats and mice, and metabolic stability was tested at 37° C. for 30 minutes. In addition, buspirone was used as a positive control. Results thereof are shown in Table below and FIGS. 4A to 4E.
# [6] = Metabolic stability test in liver microsomes; type: in vitro ADME; conditions: 0.5 mg protein/mL, 37° C.
# Procedure: as §2
# [7] = male, ICR, mouse, plasma, Oral administration, 20 mg/kg, mice, n=3
structure (smiles),measurement,setting,value
"COc1cccc2c1C(=O)c1c(O)c3c(c(O)c1C2=O)C[C@@](O)(C(=O)CO)C[C@@H]3O[C@H]1C[C@H](N)[C@H](O)[C@H](C)O1 [Doxorubicin, doxorubicin]",IC50,MCF7,15.4 nM
same,IC50,K562,2.85 nM
same,IC50,K562/ADR,2190 nM
same,Resistance Factor,K562/ADR,767.91
same,IC50,MCF7/ADR,2610 nM
same,Resistance Factor,MCF7/ADR,169.57
"CCOCCn1c(Cl)c(/C=N/NC(=O)c2cc3cc(OC)ccc3o2)c2cc(OC)ccc21 [Example 15, (E)-N′-[(2-chloro-1-(2-ethoxyethyl)-5-methoxy-1H-indol-3-yl]methylene}-5-methoxybenzofuran-2-carbohydrazide]","Residue % (180 minutes elapsed), Mean",Stability test in plasma [1]; Human plasma,4.20%
same,half-life at 5 mM,Stability test in plasma [1]; Human plasma,160 min
same,"Residue % (180 minutes elapsed), Mean",Stability test in plasma [1]; Mouse plasma,57.25%
same,half-life at 5 mM,Stability test in plasma [1]; Mouse plasma,> 180 min
same,Solubility evaluation result,[2],Soluble
same,half-life at 5 mM,Stability test in plasma [3],134 min
same,"Residue % (180 minutes elapsed), Mean",Stability test in plasma [3]; 5 mM,41.74%
same,IC50,HeLa cells,123 nM
same,tumor growth inhibition,"HeLa CCL2 tumor; 0-28 days, Day 28, tumor size",40.13%
same,reduction in tumor weight compared with solvent control,HeLa CCL2 tumor; excised tumor,26.2%
same,"F, Mean","[4]; Oral 20 mg/kg vs intravenous 5 mg/kg, calculated using AUClast",0.3%
same,Vd,"[4]; male, ICR, mouse, plasma, 5 mg/kg, Intravenous administration, 5 mg/kg, mice, n=3, read-out: Vss, Mean",0.71 L/kg
same,Vd,"[4]; male, ICR, mouse, plasma, 5 mg/kg, Intravenous administration, 5 mg/kg, mice, n=3, read-out: Vz, Mean",1.37 L/kg
same,AUC(0-inf),"[4]; male, ICR, mouse, plasma, Intravenous administration, 5 mg/kg, mice, n=3, read-out: AUCinf, Mean",1730 ng·h/mL
same,AUC(0-t),"[4]; male, ICR, mouse, plasma, Intravenous administration, 5 mg/kg, mice, n=3",1720 ng·h/mL
same,clearance,"[4]; male, ICR, mouse, plasma, Intravenous administration, 5 mg/kg, mice, n=3, read-out: CL, Mean (converted)",48.2 mL/min/kg
same,MRT inf,"[4]; male, ICR, mouse, plasma, Intravenous administration, 5 mg/kg, mice, n=3, read-out: MRTinf, Mean",14.4 min
same,half-life,"[4]; male, ICR, mouse, plasma, Intravenous administration, 5 mg/kg, mice, n=3, read-out: t1/2, Mean (converted)",19.8 min
same,Cmax,[4]; [7],34.4 ng/mL
same,Tmax,[4]; [7],15 min
same,AUC(0-t),[4]; [7],18 ng·h/mL
same,Residue (%) after culturing for 30 min,[5],91.02 ± 2.89%
same,Residue (%) after culturing for 30 min,"[6]; Human, +NADPH",7.94 ± 0.74%
same,Residue (%) after culturing for 30 min,"[6]; Human, −NADPH",88.63 ± 1.61%
same,Residue (%) after culturing for 30 min,"[6]; Mouse, +NADPH",4.82 ± 0.52%
same,Residue (%) after culturing for 30 min,"[6]; Mouse, −NADPH",86.31 ± 1.72%
same,Residue (%) after culturing for 30 min,"[6]; Rat, +NADPH",3.47 ± 0.25%
same,Residue (%) after culturing for 30 min,"[6]; Rat, −NADPH",94.95 ± 1.93%
"CC[C@]1(O)C[C@@H]2CN(CCc3c([nH]c4ccccc34)[C@@](C(=O)OC)(c3cc4c(cc3OC)N(C)[C@H]3[C@@](O)(C(=O)OC)[C@H](OC(C)=O)[C@]5(CC)C=CCN6CC[C@]43[C@@H]65)C2)C1 [Vinblastine, vinblastine]",IC50,MCF7,5.28 nM
same,IC50,K562,17.1 nM
same,IC50,K562/ADR,268 nM
same,Resistance Factor,K562/ADR,15.63
same,IC50,MCF7/ADR,95.9 nM
same,Resistance Factor,MCF7/ADR,18.17
